# Where two headings read alike, the source gives them in different places.
# Assays:
# [1] = test system: S. aureus Met-R multiresistant strains; assay: MIC determination (NCCLS broth microdilution), methicillin-resistant multiresistant S. aureus strains; format: cell-based, Staphylococcus aureus; conditions: for MIC: antibiotype Oxa, Ery, read-out: MIC
# Procedure, shortened: (§1)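 NCCLS broth microdilution in cation-supplemented Mueller-Hinton broth, final inoculum 5×10^5 from exponential-phase bacteria; 2% NaCl added for methicillin testing. MIC taken as lowest concentration preventing visible growth after 18–24 h at 37 °C, with S. aureus ATCC 29213 as QC strain.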
# [2] = test system: S. aureus vancomycin-intermediates (VISA) Met-R strains; assay: MIC determination (NCCLS broth microdilution), VISA Met-R strains; format: cell-based, Staphylococcus aureus; conditions: for MIC: antibiotype Oxa, Cip, Clin, Ery
# Procedure, shortened: as §1
# Staphylococci = conditions: toward strains of Staphylococci; Kayser et al. 1974; cited from earlier work
structure (smiles),measurement,setting,value
"CS(=O)(=O)c1ccc([C@@H](O)[C@@H](CO)NC(=O)C(Cl)Cl)cc1 [Thiamphenicol, thiamphenicol]",% susceptible at breakpoint,"[1]; S. aureus (50) Met-R, NCCLS (1999) breakpoints",66%
same,MIC,"[1]; Staphylococcus aureus, Strain 1, Cip, Clin, Gm",8 µg/mL
same,MIC,"[1]; Staphylococcus aureus, Strain 2, Clin, Fos",> 64 µg/mL
same,MIC,"[1]; Staphylococcus aureus, Strain 3, Cip, Clin, Gm",16 µg/mL
same,MIC,"[1]; Staphylococcus aureus, Strain 4, Cip, Gm",8 µg/mL
same,MIC,"[1]; Staphylococcus aureus, Strain 5, Cip, Clin",> 64 µg/mL
same,MIC,"[1]; Staphylococcus aureus, Strain 6, Clin, Gm",> 64 µg/mL
same,MIC,"[1]; Staphylococcus aureus, Strain 7, Cip, Gm",16 µg/mL
same,MIC,"[1]; Staphylococcus aureus, Strain 8, Cip, Clin",> 64 µg/mL
same,MIC,"[1]; Staphylococcus aureus, Strain 9, Cip, Clin, Gm",8 µg/mL
same,MIC,"[1]; Staphylococcus aureus, Strain 10, Cip, Clin, Gm",4 µg/mL
same,MIC,"[1]; Staphylococcus aureus, Strain 11, Clin, Rif",> 64 µg/mL
same,MIC,"[1]; Staphylococcus aureus, Strain 12, Cip, Clin",> 64 µg/mL
same,MIC,"[1]; Staphylococcus aureus, Strain 13, Cip, Clin",16 µg/mL
same,MIC,"[1]; Staphylococcus aureus, Strain 14, Clin, Cip",16 µg/mL
same,MIC,"[1]; Staphylococcus aureus, Strain 15, Cip, Clin, Gm",16 µg/mL
same,MIC,"[1]; Staphylococcus aureus, Strain 16, Cip, Clin",8 µg/mL
same,MIC,"[1]; Staphylococcus aureus, Strain 17, Cip, Clin",16 µg/mL
same,MIC,"[1]; Staphylococcus aureus, Strain 18, Cip, Clin, Gm",> 64 µg/mL
same,MIC,"[1]; Staphylococcus aureus, Strain 19, Cip, Clin, Gm",16 µg/mL
same,MIC,"[1]; Staphylococcus aureus, Strain 20, Cip, Clin, Gm",> 64 µg/mL
same,MIC,"[1]; Staphylococcus aureus, Strain 21, Cip, Clin, Gm",> 64 µg/mL
same,MIC,"[1]; Staphylococcus aureus, Strain 22, Cip, Clin",16 µg/mL
same,MIC,"[1]; Staphylococcus aureus, Strain 23, Cip, Clin, Gm",> 64 µg/mL
same,MIC,"[1]; Staphylococcus aureus, Strain 24, Cip, Clin, Gm",> 64 µg/mL
same,MIC,"[1]; Staphylococcus aureus, Strain 25, Cip, Clin, Gm",16 µg/mL
same,MIC,"[1]; Staphylococcus aureus, Strain 26, Cip, Clin, Fos, Gm",16 µg/mL
same,MIC,"[1]; Staphylococcus aureus, Strain 27, Cip, Clin, Fos, Gm",16 µg/mL
same,MIC,"[1]; Staphylococcus aureus, Strain 28, Cip, Clin, Gm",> 64 µg/mL
same,MIC,"[1]; Staphylococcus aureus, Strain 29, Clin, Fos",16 µg/mL
same,MIC,"[1]; Staphylococcus aureus, Strain 30, Cip, Clin, Gm, SXT, Dox",16 µg/mL
same,MIC,"[1]; Staphylococcus aureus, Strain 31, Cip, Clin, Fox, Gm",16 µg/mL
same,MIC,"[1]; Staphylococcus aureus, Strain 32, Cip, Clin, Gm, SXT, Rif",> 64 µg/mL
same,MIC,"[1]; Staphylococcus aureus, Strain 33, Cip, Clin, Gm",> 64 µg/mL
same,MIC,"[1]; Staphylococcus aureus, Strain 34, Cip, Clin, Gm",> 64 µg/mL
same,MIC,"[1]; Staphylococcus aureus, Strain 35, Cip, Clin, Gm",16 µg/mL
same,MIC,"[1]; Staphylococcus aureus, Strain 36, Cip, Clin, Fos",16 µg/mL
same,MIC,"[1]; Staphylococcus aureus, Strain 37, Cip, Clin, Fos, Gm",16 µg/mL
same,MIC,"[1]; Staphylococcus aureus, Strain 38, Cip, Gm",8 µg/mL
same,MIC,"[1]; Staphylococcus aureus, Strain 39, Cip, Clin, Fos, Gm",16 µg/mL
same,MIC,"[1]; Staphylococcus aureus, Strain 40, Cip, Clin, Gm",16 µg/mL
same,MIC,"[1]; Staphylococcus aureus, Strain 41, Cip, Clin",16 µg/mL
same,MIC,"[1]; Staphylococcus aureus, Strain 42, Cip, Clin, Gm",8 µg/mL
same,MIC,"[1]; Staphylococcus aureus, Strain 43, Cip, Clin, Gm",16 µg/mL
same,MIC,"[1]; Staphylococcus aureus, Strain 44, Cip, Clin, Gm, Rif, Dox",16 µg/mL
same,MIC,"[1]; Staphylococcus aureus, Strain 45, Cip, Clin, Gm, Rif, Dox, Fos",16 µg/mL
same,MIC,"[1]; Staphylococcus aureus, Strain 46, Clin, Fos",16 µg/mL
same,MIC,"[1]; Staphylococcus aureus, Strain 47, Cip, Clin, Gm",8 µg/mL
same,MIC,"[1]; Staphylococcus aureus, Strain 48, Cip, Clin",> 64 µg/mL
same,MIC,"[1]; Staphylococcus aureus, Strain 49, Cip, Gm",16 µg/mL
same,MIC,"[1]; Staphylococcus aureus, Strain 50, Cip, Clin, Gm, Rif, Dox",> 64 µg/mL
same,MIC50,"[1]; Staphylococcus aureus, S. aureus (50) Met-R, read-out: MIC 50%",16 µg/mL
same,MIC90,"[1]; Staphylococcus aureus, S. aureus (50) Met-R, read-out: MIC 90%",> 64 µg/mL
same,activity (MIC) compared with cloramphenicol,"[1]; VISA and multiresistant Staphylococcus aureus strains, in vitro",comparable to that as of cloramphenicol
same,MIC,"[2]; Staphylococcus aureus, Strain 51 VISA, read-out: MIC",16 µg/mL
same,MIC,[2]; Strain 52 VISA,16 µg/mL
same,MIC Range,[2]; VISA (2) Met-R,16 mg/L
same,% susceptible at breakpoint,"[2]; VISA (2) Met-R, NCCLS (1999) breakpoints",100%
same,in vitro activity relative to chloramphenicol (times less active),Staphylococci,2 to 4 times

# Reference: patent publication US6589993B2, “Treating vancomycin-intermediates and multiresistant staphylococci infection with thiamphenicol or a salt thereof” (Zambon Group S.p.A., priority 2000, dated 2003)
